Experiments:
Type in all cases: biochemical
ROCK2 [1] = biological target: T1, ROCK2 (Homo sapiens, UniProt O75116); assay: In vitro inhibitory activity assay ROCK2 (Method B, ADP-Glo, 200 μM ATP); conditions: ATP 200 μM, read-out: Method B ROCK 2 (Ki)
Experimental: (§1) In Vitro Inhibitory Activity Assay Description ROCK1 and ROCK2
(§2) The effectiveness of compounds of the present invention to inhibit Rho kinase activity can be determined in a 10 μl assay containing 40 mM Tris pH7.5, 20 mM MgCl2 0.1 mg/mL BSA, 50 μM DTT and 2.5 μM peptide substrate (Myelin Basic Protein) using an ADP-Glo kit (Promega). Compounds were dissolved in DMSO such that the final concentration of DMSO was 1% in the assay. All reactions/incubations are performed at 25° C. Compound (2 μL) and either Rho kinase 1 or 2 (4 μl) were mixed and incubated for 30 min. Reactions were initiated by addition of ATP (4 μL) such that the final concentration of ATP in the assay was 200 μM. After a 1 hour incubation 10111 of ADP-Glo Reagent was added and after a further 45 minute incubation 20 μL of Kinase Detection Buffer was added and the mixture incubated for a further 30 minutes. The luminescent signal was measured on a luminometer. […] Compounds were tested in dose-response format and the inhibition of kinase activity was calculated at each concentration of compound. To determine the IC50 (concentration of compound required to inhibit 50% of the enzyme activity) data were fit to a plot of % inhibition vs Log10 compound concentration using a sigmoidal fit with a variable slope and fixing the maximum to 100% and the minimum to 0%. To determine the Ki values the Cheng-Prusoff equation was utilized (Ki=IC50/(1[S]/Km).

PKA = PKA (Homo sapiens, UniProt P17612); assay: In vitro inhibitory activity assay for PKA (ADP-Glo), reported as selectivity ratio vs ROCK2; conditions: Ki PKA divided by Ki ROCK2 (method B)
Experimental: In vitro inhibitory activity assay description for PKA
The effectiveness of compounds of the present invention to inhibit PKA activity can be determined in a […], assay containing 40 mM Tris pH7.5, 20 mM MgCl2 0.1 mg/mL BSA, 50 μM DTT and 260 μM peptide substrate (kemptide) using an ADP-Glo kit (Promega). Compounds were dissolved in DMSO such that the final concentration of DMSO was 1% in the assay. All reactions/incubations are performed at 25° C. Compound and PKA enzyme (6 μl) were mixed and incubated for 30 min. Reactions were initiated by addition of ATP (4 μL) such that the final concentration of ATP in the assay was 10 μM. After a 30 minute incubation 10 μL of ADP-Glo Reagent was added and after a further 1 hour incubation 20 μL of Kinase Detection Buffer was added and the mixture incubated for a further 45 minutes. The luminescent signal was measured on a luminometer. […] Compounds were tested in dose-response format and the inhibition of kinase activity was calculated at each concentration of compound. To determine the IC50 (concentration of compound required to inhibit 50% of the enzyme activity) data were fit to a plot of % inhibition vs Log10 compound concentration using a sigmoidal fit with a variable slope and fixing the maximum to 100% and the minimum to 0%. To determine the Ki values the Cheng-Prusoff equation was utilized (Ki=IC50/(1+[S]/Km).
In vitro inhibitory activities for PKA were reported as selectivity ratio vs. ROCK2. Selectivity ratio PKA/ROCK2 was calculated by dividing the Ki value for PKA by Ki value of ROCK2 (method B) and reported into table 1.

ROCK1 [2] = biological target: T2, ROCK1 (Homo sapiens, UniProt Q13464); assay: In vitro inhibitory activity assay ROCK1 (Method B, ADP-Glo, 200 μM ATP); conditions: ATP 200 μM, read-out: Method B ROCK 1 (Ki)
T2 sequence (Q13464 whole entry): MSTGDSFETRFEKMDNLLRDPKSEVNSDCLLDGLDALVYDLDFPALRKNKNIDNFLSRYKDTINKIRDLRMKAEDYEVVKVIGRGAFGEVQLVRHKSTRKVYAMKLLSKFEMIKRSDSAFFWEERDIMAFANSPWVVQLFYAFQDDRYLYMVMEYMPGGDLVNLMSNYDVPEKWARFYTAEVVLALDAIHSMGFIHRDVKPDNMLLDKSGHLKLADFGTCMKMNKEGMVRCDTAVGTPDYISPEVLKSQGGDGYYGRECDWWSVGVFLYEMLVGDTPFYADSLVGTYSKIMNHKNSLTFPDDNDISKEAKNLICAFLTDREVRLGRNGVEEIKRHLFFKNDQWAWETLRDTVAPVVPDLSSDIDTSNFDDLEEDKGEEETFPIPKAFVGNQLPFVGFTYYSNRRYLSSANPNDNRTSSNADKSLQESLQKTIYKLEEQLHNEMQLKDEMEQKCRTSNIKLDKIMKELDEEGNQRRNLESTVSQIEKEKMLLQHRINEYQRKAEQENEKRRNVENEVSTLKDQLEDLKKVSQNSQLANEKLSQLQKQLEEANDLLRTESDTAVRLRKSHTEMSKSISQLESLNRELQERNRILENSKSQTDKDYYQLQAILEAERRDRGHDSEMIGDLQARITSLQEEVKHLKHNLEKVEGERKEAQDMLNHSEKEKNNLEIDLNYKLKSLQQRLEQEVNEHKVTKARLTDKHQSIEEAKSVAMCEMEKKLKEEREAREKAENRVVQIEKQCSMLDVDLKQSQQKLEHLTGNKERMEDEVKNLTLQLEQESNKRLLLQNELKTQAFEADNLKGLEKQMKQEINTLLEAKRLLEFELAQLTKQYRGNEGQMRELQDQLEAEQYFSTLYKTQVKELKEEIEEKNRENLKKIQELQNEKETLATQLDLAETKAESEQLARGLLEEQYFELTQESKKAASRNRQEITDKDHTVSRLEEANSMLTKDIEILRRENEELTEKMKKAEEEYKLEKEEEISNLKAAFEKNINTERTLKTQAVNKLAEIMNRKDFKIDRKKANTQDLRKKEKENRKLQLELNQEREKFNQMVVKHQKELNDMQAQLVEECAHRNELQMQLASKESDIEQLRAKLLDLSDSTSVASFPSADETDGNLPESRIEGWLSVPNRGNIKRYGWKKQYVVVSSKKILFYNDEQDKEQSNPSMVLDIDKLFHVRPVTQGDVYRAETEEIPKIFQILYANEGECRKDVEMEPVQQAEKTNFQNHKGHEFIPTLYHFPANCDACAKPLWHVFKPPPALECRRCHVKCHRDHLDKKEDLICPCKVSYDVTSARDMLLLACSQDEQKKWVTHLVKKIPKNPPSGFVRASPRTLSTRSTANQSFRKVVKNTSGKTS
Experimental: as §1, §2

ROCK2 [3] = biological target: T1, ROCK2; assay: In vitro inhibitory activity assay ROCK2 (Method A, ADP-Glo, 10 μM ATP); conditions: ATP 10 μM, read-out: Method A ROCK 2 (Ki)
Experimental: (§3) In vitro inhibitory activity assay description ROCK1 and ROCK2
as §2, with “(2 uL)” for “(2 μL)”, “was 10” for “was 200”, “incubation […]” for “incubation 10111”, “45 minutes” for “45 minute”, “20 uL” for “20 μL”, “utilized (Ki=IC50/(1+[S]/Km).” for “utilized (Ki=IC50/(1[S]/Km).”

ROCK1 [4] = biological target: T2, ROCK1; assay: In vitro inhibitory activity assay ROCK1 (Method A, ADP-Glo, 10 μM ATP); conditions: ATP 10 μM, read-out: Method A ROCK 1 (Ki)
Experimental: as §3
as §2, with “(2 uL)” for “(2 μL)”, “was 10” for “was 200”, “incubation […]” for “incubation 10111”, “45 minutes” for “45 minute”, “20 uL” for “20 μL”, “utilized (Ki=IC50/(1+[S]/Km).” for “utilized (Ki=IC50/(1[S]/Km).”

T1 sequence (O75116 whole entry): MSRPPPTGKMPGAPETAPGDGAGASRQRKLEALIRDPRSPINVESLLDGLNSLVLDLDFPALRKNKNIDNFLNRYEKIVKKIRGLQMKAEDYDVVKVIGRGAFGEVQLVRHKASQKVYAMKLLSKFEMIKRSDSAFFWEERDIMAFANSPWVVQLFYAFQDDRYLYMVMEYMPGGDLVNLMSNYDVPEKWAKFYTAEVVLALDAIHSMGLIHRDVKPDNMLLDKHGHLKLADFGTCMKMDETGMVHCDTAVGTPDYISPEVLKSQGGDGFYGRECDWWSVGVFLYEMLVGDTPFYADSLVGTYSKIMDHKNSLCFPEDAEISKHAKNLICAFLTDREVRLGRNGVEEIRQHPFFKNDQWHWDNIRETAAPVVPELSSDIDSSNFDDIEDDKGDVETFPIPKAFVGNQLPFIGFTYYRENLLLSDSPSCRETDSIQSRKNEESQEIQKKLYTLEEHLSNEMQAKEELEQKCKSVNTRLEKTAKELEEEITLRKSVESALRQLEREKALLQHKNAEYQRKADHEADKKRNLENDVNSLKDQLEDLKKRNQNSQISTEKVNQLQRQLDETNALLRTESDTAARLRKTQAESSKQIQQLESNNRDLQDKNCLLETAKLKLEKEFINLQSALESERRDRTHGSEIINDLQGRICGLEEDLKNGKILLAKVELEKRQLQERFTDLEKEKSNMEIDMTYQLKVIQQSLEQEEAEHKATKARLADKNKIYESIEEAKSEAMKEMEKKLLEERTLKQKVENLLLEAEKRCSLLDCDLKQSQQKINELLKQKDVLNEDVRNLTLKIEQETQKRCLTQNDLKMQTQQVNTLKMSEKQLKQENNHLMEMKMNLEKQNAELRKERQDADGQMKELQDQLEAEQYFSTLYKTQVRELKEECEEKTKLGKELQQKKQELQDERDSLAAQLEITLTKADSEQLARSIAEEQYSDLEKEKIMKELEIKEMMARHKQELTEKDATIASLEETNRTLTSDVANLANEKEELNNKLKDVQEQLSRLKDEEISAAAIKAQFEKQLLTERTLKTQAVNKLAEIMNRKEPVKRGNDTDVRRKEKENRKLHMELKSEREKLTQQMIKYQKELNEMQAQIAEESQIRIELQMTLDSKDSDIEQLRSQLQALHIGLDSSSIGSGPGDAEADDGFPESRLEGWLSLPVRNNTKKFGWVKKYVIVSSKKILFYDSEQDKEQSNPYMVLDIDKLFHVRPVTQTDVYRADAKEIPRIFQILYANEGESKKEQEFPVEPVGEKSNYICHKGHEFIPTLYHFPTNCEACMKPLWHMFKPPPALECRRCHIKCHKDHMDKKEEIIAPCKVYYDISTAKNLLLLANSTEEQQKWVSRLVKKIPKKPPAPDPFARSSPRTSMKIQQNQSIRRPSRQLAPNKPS

SMILES	Ki (ROCK2 [1])	Ratio Ki PKA/ROCK2 (PKA)	Ki (ROCK1 [2])	Ki (ROCK2 [3])	Ki (ROCK1 [4])
O=C(NCC1CCCCO1)c1cccc(CNc2ncc(-c3cn[nH]c3)c3c2CCO3)c1 (racemic) [Example 11, 3-(((7-(1H-pyrazol-4-yl)-2,3-dihydrofuro[3,2-c]pyridin-4-yl)amino)methyl)-N-((tetrahydro-2H-pyran-2-yl)methyl)benzamide]	≤ 3 nM	*** (ratio≥10)	≤ 3 nM		
O=C(NCC1CCCCO1)c1cccc(CNc2ncc(-c3cn[nH]c3)c3c2CCO3)c1 (single isomer, unassigned; enantiomer 1) [Example 55, 3-(((7-(1H-pyrazol-4-yl)-2,3-dihydrofuro[3,2-c]pyridin-4-yl)amino)methyl)-N-((tetrahydro-2H-pyran-2-yl)methyl)benzamide (Enantiomer 1)]	≤ 3 nM	*** (ratio≥10)	≤ 3 nM		
O=C(NCC1CCCCO1)c1cccc(CNc2ncc(-c3cn[nH]c3)c3c2CCO3)c1 (single isomer, unassigned; enantiomer 2) [Example 56, 3-(((7-(1H-pyrazol-4-yl)-2,3-dihydrofuro[3,2-c]pyridin-4-yl)amino)methyl)-N-((tetrahydro-2H-pyran-2-yl)methyl)benzamide (Enantiomer 2)]	≤ 3 nM	*** (ratio≥10)	≤ 3 nM		
O=C(NC1CCN(C2CC2)CC1)c1cccc(CNc2ncc(-c3cn[nH]c3)c3c2CCO3)c1 [Example 1, 3-(((7-(1H-Pyrazol-4-yl)-2,3-dihydrofuro[3,2-c]pyridin-4-yl)amino)methyl)-N-(1-cyclopropylpiperidin-4-yl)benzamide]	≤ 3 nM	*** (ratio≥10)	≤ 3 nM		
O=C(NCc1ccccn1)c1cccc(CNc2ncc(-c3cn[nH]c3)c3c2CCO3)c1 [Example 4, 3-(((7-(1H-pyrazol-4-yl)-2,3-dihydrofuro[3,2-c]pyridin-4-yl)amino)methyl)-N-(pyridin-2-ylmethyl)benzamide]	3 to 30 nM		3 to 30 nM		
COCCNC(=O)c1cccc(CNc2ncc(-c3cn[nH]c3)c3c2CCO3)c1 [Example 7, 3-(((7-(1H-pyrazol-4-yl)-2,3-dihydrofuro[3,2-c]pyridin-4-yl)amino)methyl)-N-(2-methoxyethyl)benzamide]	≤ 3 nM		3 to 30 nM		
O=C(NCc1cncnc1)c1cccc(CNc2ncc(-c3cn[nH]c3)c3c2CCO3)c1 [Example 9, 3-(((7-(1H-pyrazol-4-yl)-2,3-dihydrofuro[3,2-c]pyridin-4-yl)amino)methyl)-N-(pyrimidin-5-ylmethyl)benzamide]	3 to 30 nM		3 to 30 nM		
O=C(NCc1ccon1)c1cccc(CNc2ncc(-c3cn[nH]c3)c3c2CCO3)c1 [Example 13, 3-(((7-(1H-pyrazol-4-yl)-2,3-dihydrofuro[3,2-c]pyridin-4-yl)amino)methyl)-N-(isoxazol-3-ylmethyl)benzamide]	≤ 3 nM		3 to 30 nM		
O=C(NCc1cscn1)c1cccc(CNc2ncc(-c3cn[nH]c3)c3c2CCO3)c1 [Example 14, 3-(((7-(1H-pyrazol-4-yl)-2,3-dihydrofuro[3,2-c]pyridin-4-yl)amino)methyl)-N-(thiazol-4-ylmethyl)benzamide]	≤ 3 nM		≤ 3 nM		
CN(C)CCn1ncc2cc(C(=O)Nc3cccc(CNc4ncc(-c5cn[nH]c5)c5c4CCO5)c3)ccc21 [Example 43, N-(3-(((7-(1H-pyrazol-4-yl)-2,3-dihydrofuro[3,2-c]pyridin-4-yl)amino)methyl)phenyl)-1-(2-(dimethylamino)ethyl)-1H-indazole-5-carboxamide]	≤ 3 nM		≤ 3 nM	≤ 3 nM	≤ 3 nM
CN1CCC(n2ncc3cc(C(=O)Nc4cccc(CNc5ncc(-c6cn[nH]c6)c6c5CCO6)c4)ccc32)CC1 [Example 44, N-(3-(((7-(1H-pyrazol-4-yl)-2,3-dihydrofuro[3,2-c]pyridin-4-yl)amino)methyl)phenyl)-1-(1-methylpiperidin-4-yl)-1H-indazole-5-carboxamide]	≤ 3 nM		≤ 3 nM	≤ 3 nM	≤ 3 nM
CN1CCc2cc(C(=O)Nc3cccc(CNc4ncc(-c5cn[nH]c5)c5c4CCO5)c3)ccc2C1 [Example 45, N-(3-(((7-(1H-pyrazol-4-yl)-2,3-dihydrofuro[3,2-c]pyridin-4-yl)amino)methyl)phenyl)-2-methyl-1,2,3,4-tetrahydroisoquinoline-6-carboxamide]	≤ 3 nM		≤ 3 nM	≤ 3 nM	≤ 3 nM
O=C(Nc1cccc(CNc2ncc(-c3cn[nH]c3)c3c2CCO3)c1)c1ccc2c(cnn2CCN2CCOCC2)c1 [Example 46, N-(3-(((7-(1H-pyrazol-4-yl)-2,3-dihydrofuro[3,2-c]pyridin-4-yl)amino)methyl)phenyl)-1-(2-morpholinoethyl)-1H-indazole-5-carboxamide]	≤ 3 nM		≤ 3 nM	≤ 3 nM	≤ 3 nM
O=C(Nc1cccc(CNc2ncc(-c3cn[nH]c3)c3c2CCO3)c1)c1ncc(CN2CCCC2)s1 [Example 48, N-(3-(((7-(1H-pyrazol-4-yl)-2,3-dihydrofuro[3,2-c]pyridin-4-yl)amino)methyl)phenyl)-5-(pyrrolidin-1-ylmethyl)thiazole-2-carboxamide]	≤ 3 nM		≤ 3 nM	≤ 3 nM	≤ 3 nM
O=C(NCc1ccncc1)c1cccc(CNc2ncc(-c3cn[nH]c3)c3c2CCO3)c1 [Example 53, 3-(((7-(1H-pyrazol-4-yl)-2,3-dihydrofuro[3,2-c]pyridin-4-yl)amino)methyl)-N-(pyridin-4-ylmethyl)benzamide]				≤ 3 nM	≤ 3 nM
O=C(NC1CCN(Cc2ccccc2)CC1)c1cccc(CNc2ncc(-c3cn[nH]c3)c3c2CCO3)c1 [Example 54, 3-(((7-(1H-pyrazol-4-yl)-2,3-dihydrofuro[3,2-c]pyridin-4-yl)amino)methyl)-N-(1-benzylpiperidin-4-yl)benzamide]				≤ 3 nM	≤ 3 nM
CNC(=O)c1cccc(CNc2ncc(-c3cncs3)c3c2CCO3)c1 [Example A, N-Methyl-3-(((7-(thiazol-5-yl)-2,3-dihydrofuropyridin-4-yl)amino)methyl)benzamide, reference compound]	> 30 nM		> 30 nM		
CNC(=O)c1cccc(CNc2ncc(-c3cnco3)c3c2CCO3)c1 [Example B, N-Methyl-3-(((7-(oxazol-5-yl)-2,3-dihydrofuro[3,2-c]pyridin-4-yl)amino)methyl)benzamide, reference compound]	3 to 30 nM		> 30 nM		

Reference: US20240082223A1, “DIHYDROFUROPYRIDINE DERIVATIVES AS RHO- KINASE INHIBITORS” (CHIESI FARMACEUTICI S.P.A., priority 2020, published 2024)
